Where “and” joins values, the source holds several entries; their conditions need not be identical. Equal values may be shown once. Starred links: 1 amine or outer side, 2 acyl side, 3 side chain; linkers in the order of their positions; H or OH if unused. Non-standard residues stand in square brackets, D forms with d. Residues, ends and D or L forms follow the SMILES beside them. No end group written: not given here. X1 = CC(C)[C@@H](C(=O)[*:2])N(C[C@@H](N)Cc1ccccc1)[*:1]; β3hPhg = O=C(C[C@@H](N[*:1])c1ccccc1)[*:2]; Sar = CNCC(=O)O
Experiments:
[1] = Pharmacokinetic experiment on pulmonarily administered native motilin and motilin derivative compounds in rats (RIA); type: in vivo, rat; settings: pulmonary administration; for Cmax / AUC / BA: 25 μg/rat; for AUC: trapezoidal method; for BA: relative to AUC of intravenous native motilin; for profile of plasma concentration compared with native motilin: FIG. 3
Protocol: As test animals, 7- to 10-wk old male SD rats (purchased from CHARLES RIVER LABORATORIES JAPAN, INC.) that consisted of 3 rats per a group were subjected to the following experiment. Native motilin or motilin derivative compounds were dissolved in an aqueous solution of 0.1 N acetic acid to prepare a solution at a concentration of 1 mg/mL and 25 μL of the solution was administered into the polyethylene tube through the trachea by means of an intratracheal liquid spraying device (MicroSprayer; product of Penn Century). […] In the measurement, the respective derivatives were used as standard substances to construct calibration curves for determining the plasma levels.
Using these values, bioavailability (BA (%)) was calculated by the following equation: BA(%)=[(AUC/Dose)/(AUC(motilin—iv)/Dose(motilin—iv))]×100 • AUC: AUC (ng·min/mL) after pulmonary administration • Dose: dose (μg/kg) in pulmonary administration • AUC (motilin_iv): AUC (ng·min/mL) after intravenous administration of native motilin • Dose (motilin_iv): dose (μg/kg) in intravenous administration of native motilin.

[2] = tested on: conscious dog's gastrointestinal tract; test: Fasting IMC inducing activity in conscious dogs (force transducers); type: in vivo; settings: fasting period, intravenous, 0.1 μg/kg
Excerpt: More specifically, dogs under anesthesia were subjected to a surgical operation in which force transducers were sutured to the serous membranes of the gastric antrum, duodenum, jejunum and ileum along the ring-shaped muscle and, thereafter, the strain from each transducer was sent to a recorder via an amplifier.

in vivo = settings: male, cynomolgus monkey, iv, 10 ug/kg
Protocol: In this example, native motilin and a motilin derivative compound were administered intravenously to monkeys and their plasma concentrations were measured.
As test animals, 8- to 9-year old male cynomolgus monkeys (N=1-2 per group) were subjected to the following experiment. Native motilin and compound 2 were each dissolved in a 5% mannitol solution to prepare solutions at a concentration of 100 μg/mL; the solutions were administered to the animals at a dose of 0.1 mL/kg through the right cephalic vein by means of a syringe and a needle (both being products of TERUMO). Before administration and 5, 10, 15, 20, 30 and 60 minutes after administration, blood was sampled through the left cephalic vein.
To the collected sample, a 10% EDTA.2Na.2H2O solution was immediately added at a volume ratio of 1:100 and the plasma was separated by centrifugation. The plasma was immediately mixed with a 5,000 IU/mL aprotinin solution at a volume ratio of 1:10 and stored at −80° C. until use in measurement.
Measurement of the plasma concentrations of native motilin and the motilin derivative compound was conducted by the radioimmunoassay (RIA) technique using an anti-motilin antibody. Stated more specifically, after adding an anti-motilin antibody to the plasma sample, [^125I-Tyr7] motilin was added for a competitive reaction to take place. By subsequent addition of a secondary antibody, the motilin binding to the anti-motilin antibody was precipitated and after separating the supernatant, the radioactivity in the precipitating faction was measured with a γ-counter (product of PerkinElmer).
From the obtained profiles for the plasma concentrations of native motilin and the motilin derivative compound, the plasma concentration at time zero (C0) and the area under curve for plasma concentrations (AUC) were calculated as pharmacokinetic parameters; C0 was determined by extrapolation and AUC by the trapezoidal method.

[3] = Pharmacokinetic experiment on intranasally administered native motilin and a motilin derivative compound in monkeys (RIA); type: in vivo, cynomolgus monkey; settings: intranasal administration
Protocol: This example was conducted with a view to measuring by RIA the changes that occurred in monkeys in terms of the plasma concentrations of transnasally administered native motilin and a motilin derivative compound.
In the experiment, 10- to 11-year old male cynomolgus monkeys were used. Native motilin or compound 2 and microcrystalline cellulose were mixed at a ratio of 1:40 to prepare intranasal preparations, 20-mg portions of which were filled into gelatin capsules. Each capsule was administered into the right nasal cavity of each animal by means of an intranasal administration device (product of Hitachi Automotive Systems, Ltd.). Before administration and 5, 10, 15, 20, 30, 60, 120 and 180 minutes after administration, blood was sampled through the cephalic vein. The collected blood sample was treated as in Comparative Example 2 to separate plasma and the concentrations of native motilin and the motilin derivative compound in plasma were measured by RIA. In the measurement, the respective derivatives were used as standard substances to construct calibration curves for determining the plasma levels.
Using these values, bioavailability (BA (%)) was calculated by the following equation: BA(%)=[(AUC/Dose)/(AUC(iv)/Dose(iv))]×100 • AUC: AUC (ng·min/mL) after intranasal administration • Dose: dose (μg/kg) in intranasal administration • AUC (iv): AUC (ng·min/mL) after intravenous administration of each compound • Dose (iv): dose (μg/kg) in intravenous administration of each compound.

[4] = HPLC fractionation and RIA of rat plasma after pulmonary administration (unaltered form vs metabolites); type: in vivo; settings: rats, pulmonary administration, plasma 5 minutes after administration
Protocol: This example was conducted with a view to measuring by RIA the changes that occurred in rats in terms of the plasma concentrations of pulmonarily administered native motilin and motilin derivative compounds. When the RIA technique is applied, all substances that react with the anti-motilin antibody are detected, so aside from unaltered forms, metabolites that react with the antibody are also likely to be detected.
To be more specific, a polyethylene tube (PE-240; product of Clay Adams) was inserted into the trachea of 7-wk old male SD rats (purchased from CHARLES RIVER LABORATORIES JAPAN, INC.); native motilin or compound 2 (MT114) was dissolved in an aqueous solution of 0.1 N acetic acid to prepare a solution at a concentration of 1 mg/mL and 25 μL of the solution was administered into the polyethylene tube through the trachea by means of an intratracheal liquid spraying device (MicroSprayer; product of Penn Century). Five minutes after the administration, blood was sampled through the abdominal aorta and treated as in Comparative Example 1 to separate plasma. […] For each sample, an eluate was sampled at one-minute intervals from just after the sample injection to a 40-minute after sample injection and the immunological activity in each fraction was measured by RIA.

[5] = male, SD, plasma, inhaled or intranasal, 25 ug/animal
[6] = male, cynomolgus monkey, plasma, inhaled or intranasal, mean for N = 1-2

Cmax [1, 5] | AUC [1, 5] | BA [1] | Molecule | further results
0.0342 ± 0.02 µg/mL | 6.34 ng·h/mL | 11.5 ± 6.1% | CC[C@H](C)[C@H](NC(=O)[C@@H]1CCCN1C(=O)[C@@H](NC[C@@H](N)Cc1ccccc1)C(C)C)C(=O)N[C@@H](Cc1ccccc1)C(=O)N[C@H](C(=O)N[C@@H](Cc1ccc(O)cc1)C(=O)NCC(=O)N[C@@H](CCC(=O)O)C(=O)N[C@@H](CC(C)C)C(=O)N[C@@H](CCC(N)=O)C(=O)N[C@@H](CCCNC(=N)N)C(=O)N[C@@H](CCSC)C(=O)N[C@@H](CCC(N)=O)C(=O)N[C@@H](CCC(=O)O)C(=O)N[C@@H](CCCCN)C(=O)N[C@@H](CCC(=O)O)C(=O)N[C@@H](CCCNC(=N)N)C(=O)N[C@@H](CC(N)=O)C(=O)N[C@@H](CCCCN)C(=O)N1CCC[C@H]1C(=O)N[C@@H](CCC(N)=O)C(=O)O)[C@@H](C)O [Compound 6] (H-[X1]PIFTYGELQRMQEKERNKPQ-OH; N-terminus and C-terminus assumed) | BA ([1]; listed as compound 6): 11.5%; profile of plasma concentration compared with native motilin [1]: high peak levels
 |  | 5.9 ± 0.8% | CC[C@H](C)[C@H](NC(=O)CN(C)C(=O)[C@@H](NC(=O)C[C@@H](N)c1ccccc1)C(C)C)C(=O)N[C@@H](Cc1ccccc1)C(=O)N[C@H](C(=O)N[C@@H](Cc1ccc(O)cc1)C(=O)NCC(=O)N[C@@H](CCC(=O)O)C(=O)N[C@@H](CC(C)C)C(=O)N[C@@H](CCC(N)=O)C(=O)N[C@@H](CCCNC(=N)N)C(=O)N[C@@H](CCSC)C(=O)N[C@@H](CCC(N)=O)C(=O)N[C@@H](CCC(=O)O)C(=O)N[C@@H](CCCCN)C(=O)N[C@@H](CCC(=O)O)C(=O)N[C@@H](CCCNC(=N)N)C(=O)N1CCC[C@H]1C(=O)N[C@@H](CCCCN)C(=O)N1CCC[C@H]1C(=O)N[C@@H](CCC(N)=O)C(=O)O)[C@@H](C)O [Compound 10, Phg(C#CH2) Val Sar Ile Phe Thr Tyr Gly Glu Leu Gln Arg Met Gln Glu Lys Glu Arg Pro Lys Pro Gln] (β3hPhg-V[Sar]IFTYGELQRMQEKERPKPQ-OH; N-terminus and C-terminus assumed) | IMC Inducing activity [2]: Positive; Cmax ([1]; in vivo): 0.0061 ± 0.0015 µg/mL; AUC ([1]; in vivo): 3.16 ng·h/mL
0.0301 ± 0.0158 µg/mL | 9.42 ng·h/mL | 18.7 ± 10.7% | CC[C@H](C)[C@H](NC(=O)[C@@H]1CCCN1C(=O)[C@@H](NC[C@@H](N)Cc1ccccc1)C(C)C)C(=O)N[C@@H](Cc1ccccc1)C(=O)N[C@H](C(=O)N[C@@H](Cc1ccc(O)cc1)C(=O)NCC(=O)N[C@@H](CC(=O)O)C(=O)N[C@@H](CC(C)C)C(=O)N[C@@H](CCC(N)=O)C(=O)N[C@@H](CCCNC(=N)N)C(=O)N[C@@H](CC(C)C)C(=O)N[C@@H](CCC(N)=O)C(=O)N[C@@H](CCC(=O)O)C(=O)N[C@@H](CCCCN)C(=O)N[C@@H](CCC(=O)O)C(=O)N[C@@H](CCCNC(=N)N)C(=O)N1CCC[C@H]1C(=O)N[C@@H](CCCCN)C(=O)N1CCC[C@H]1C(=O)N[C@@H](CCC(N)=O)C(=O)O)[C@@H](C)O [Compound 12] (H-[X1]PIFTYGDLQRLQEKERPKPQ-OH; N-terminus and C-terminus assumed) | 
0.0184 ± 0.0104 µg/mL | 3.09 ng·h/mL | 5.6 ± 1.5% | CC[C@H](C)[C@H](NC(=O)[C@@H]1CCCN1C(=O)[C@@H](NC[C@@H](N)Cc1ccccc1)C(C)C)C(=O)N[C@@H](Cc1ccccc1)C(=O)N[C@H](C(=O)N[C@@H](Cc1ccc(O)cc1)C(=O)NCC(=O)N[C@@H](CC(=O)O)C(=O)N[C@@H](CC(C)C)C(=O)N[C@@H](CCC(N)=O)C(=O)N[C@@H](CCCNC(=N)N)C(=O)N[C@@H](CCSC)C(=O)N[C@@H](CCC(N)=O)C(=O)N[C@@H](CCC(=O)O)C(=O)N[C@@H](CCCCN)C(=O)N[C@@H](CCC(=O)O)C(=O)N[C@@H](CCCNC(=N)N)C(=O)N1CCC[C@H]1C(=O)N[C@@H](CCCCN)C(=O)N1CCC[C@H]1C(=O)N[C@@H](CCC(N)=O)C(=O)O)[C@@H](C)O [Compound 13] (H-[X1]PIFTYGDLQRMQEKERPKPQ-OH; N-terminus and C-terminus assumed) | 
0.0246 ± 0.0058 µg/mL | 4.7 ng·h/mL | 9.5 ± 0.9% | FVPIFTYGDLQRLQEKERPKPQ [Compound 3] | 
0.00453 ± 0.00286 µg/mL | 1.05 ng·h/mL | 2.8 ± 1.6% | FVPIFTYGELQRLQEKERNKGQ [Comparative compound 1, reference compound] | BA ([1]; listed as comparative compound 1): 2.8%

Molecule | Cmax [1, 5] | AUC [1, 5] | BA [1] | further results
CC[C@H](C)[C@H](NC(=O)[C@@H]1CCCN1C(=O)[C@@H](NC[C@@H](N)Cc1ccccc1)C(C)C)C(=O)N[C@@H](Cc1ccccc1)C(=O)N[C@H](C(=O)N[C@@H](Cc1ccc(O)cc1)C(=O)NCC(=O)N[C@@H](CCC(=O)O)C(=O)N[C@@H](CC(C)C)C(=O)N[C@@H](CCC(N)=O)C(=O)N[C@@H](CCCNC(=N)N)C(=O)N[C@@H](CC(C)C)C(=O)N[C@@H](CCC(N)=O)C(=O)N[C@@H](CCC(=O)O)C(=O)N[C@@H](CCCCN)C(=O)N[C@@H](CCC(=O)O)C(=O)N[C@@H](CCCNC(=N)N)C(=O)N[C@@H](CC(N)=O)C(=O)N[C@@H](CCCCN)C(=O)N1CCC[C@H]1C(=O)N[C@@H](CCC(N)=O)C(=O)O)[C@@H](C)O [Compound 7] (H-[X1]PIFTYGELQRLQEKERNKPQ-OH; N-terminus and C-terminus assumed) | 0.0172 ± 0.00718 µg/mL | 3.24 ng·h/mL | 6.4 ± 1.3% | 
FVPIFTYGELQRLQEKERNKPQ [Compound 2] | 0.0266 ± 0.0113 µg/mL | 5.84 ng·h/mL | 10.4% and 10.4 ± 4.3% | AUC (in vivo): 15.4 ng·h/mL; C0 (in vivo): 0.273 µg/mL; profile of plasma concentration compared with native motilin ([3]; FIG. 5): a high peak level; BA ([3]; relative to intravenous AUC of each compound): 5.1%; AUC [3, 6]: 6.02 ng·h/mL; Cmax [3, 6]: 0.0235 µg/mL; immunological activity peaks in HPLC fractions of plasma [4]: detected only at the elution point corresponding to the administered compound (in unaltered form); profile of plasma concentration compared with native motilin [1]: high peak levels
FVPIFTYGELQRLQEKERPKPQ [Compound 9] | 0.00899 ± 0.00599 µg/mL | 1.93 ng·h/mL | 5.7 ± 3.1% | 

Source: patent publication US8710184B2, “Motilin-like peptide compound having transmucosal absorbability imparted thereto” (Daiichi Sankyo Company, Limited, priority 2009, dated 2014)
